Experimental data as given in patent US10131652B2, “Pyrimidinyloxy benzene derivatives as herbicides” (E. I. DU PONT DE NEMOURS AND COMPANY, priority 2014, dated 2018).
Read-outs that look alike come from different tables or passages of the source.

Assays:
Test in all cases: Test E pre-/postemergence plant response
Type in all cases: in vivo
[1] = system: blackgrass (Alopecurus myosuroides); details: scale 0 to 100, read-out: Plant response rating, Blackgrass; for pest or weed control at 16 g/ha: 16 g ai/ha; for pest or weed control at 31 g/ha: 31 g ai/ha; for pest or weed control at 62 g/ha: 62 g ai/ha; for pest or weed control at 125 g/ha: 125 g ai/ha
Outline: (§1)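 Pre-emergence: seeds sown in silt loam soil and sprayed with test chemicals in a non-phytotoxic solvent/surfactant mix. Post-emergence: plants at 2–18 cm (1- to 4-leaf stage) in peat/vermiculite medium treated with the same formulation. Visual rating versus controls after 7–21 days, 0 (no effect) to 100 (complete control).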

[2] = system: canarygrass (Phalaris minor); details: scale 0 to 100, read-out: Plant response rating, Canarygrass; for pest or weed control at 16 g/ha: 16 g ai/ha; for pest or weed control at 31 g/ha: 31 g ai/ha; for pest or weed control at 62 g/ha: 62 g ai/ha; for pest or weed control at 125 g/ha: 125 g ai/ha
Outline: as §1

[3] = system: chamomile (scentless chamomile, Matricaria inodora); details: Tripleurospermum inodorum, scale 0 to 100, read-out: Plant response rating, Chamomile; for pest or weed control at 16 g/ha: 16 g ai/ha; for pest or weed control at 31 g/ha: 31 g ai/ha; for pest or weed control at 62 g/ha: 62 g ai/ha; for pest or weed control at 125 g/ha: 125 g ai/ha
Outline: as §1

[4] = system: deadnettle (henbit deadnettle, Lamium amplexicaule); details: scale 0 to 100, read-out: Plant response rating, Deadnettle; for pest or weed control at 16 g/ha: 16 g ai/ha; for pest or weed control at 31 g/ha: 31 g ai/ha; for pest or weed control at 62 g/ha: 62 g ai/ha; for pest or weed control at 125 g/ha: 125 g ai/ha
Outline: as §1

[5] = system: downy bromegrass (Bromus tectorum); details: scale 0 to 100, read-out: Plant response rating, Bromegrass, Downy; for pest or weed control at 16 g/ha: 16 g ai/ha; for pest or weed control at 31 g/ha: 31 g ai/ha; for pest or weed control at 62 g/ha: 62 g ai/ha; for pest or weed control at 125 g/ha: 125 g ai/ha
Outline: as §1

[6] = system: field poppy (Papaver rhoeas); details: scale 0 to 100, read-out: Plant response rating, Field Poppy; for pest or weed control at 16 g/ha: 16 g ai/ha; for pest or weed control at 31 g/ha: 31 g ai/ha; for pest or weed control at 62 g/ha: 62 g ai/ha; for pest or weed control at 125 g/ha: 125 g ai/ha
Outline: as §1

[7] = system: green foxtail (Setaria viridis); details: scale 0 to 100, read-out: Plant response rating, Foxtail, Green; for pest or weed control at 31 g/ha: 31 g ai/ha; for pest or weed control at 62 g/ha: 62 g ai/ha; for pest or weed control at 125 g/ha: 125 g ai/ha
Outline: as §1

[8] = system: pigweed (Amaranthus retroflexus); details: scale 0 to 100, read-out: Plant response rating, Pigweed; for pest or weed control at 16 g/ha: 16 g ai/ha; for pest or weed control at 31 g/ha: 31 g ai/ha; for pest or weed control at 62 g/ha: 62 g ai/ha; for pest or weed control at 125 g/ha: 125 g ai/ha
Outline: as §1

[9] = system: wild mustard (Sinapis arvensis); details: Brassica, scale 0 to 100, read-out: Plant response rating, Mustard, Wild; for pest or weed control at 16 g/ha: 16 g ai/ha; for pest or weed control at 31 g/ha: 31 g ai/ha; for pest or weed control at 62 g/ha: 62 g ai/ha; for pest or weed control at 125 g/ha: 125 g ai/ha
Outline: as §1

[10] = system: windgrass (Apera spica-venti); details: scale 0 to 100, read-out: Plant response rating, Windgrass; for pest or weed control at 16 g/ha: 16 g ai/ha; for pest or weed control at 62 g/ha: 62 g ai/ha; for pest or weed control at 125 g/ha: 125 g ai/ha
Outline: as §1

[11] = system: winter barley (Hordeum vulgare); details: post-emergence, Postemergence, scale 0 to 100, read-out: Plant response rating, Barley, Winter
Outline: as §1

FC(F)(F)c1cc(-c2ccccc2Oc2ncc(Cl)cn2)no1 [Compound 200, 5-chloro-2-[2-[5-(trifluoromethyl)-3-isoxazolyl]phenoxy]pyrimidine]
pest or weed control at 16 g/ha ([1]; post-emergence, Postemergence): 15%
pest or weed control at 31 g/ha ([1]; post-emergence, Postemergence): 35%
pest or weed control at 62 g/ha ([1]; post-emergence, Postemergence): 55%
pest or weed control at 125 g/ha ([1]; post-emergence, Postemergence): 75%
pest or weed control at 16 g/ha ([1]; pre-emergence, Preemergence): 25%
pest or weed control at 31 g/ha ([1]; pre-emergence, Preemergence): 75%
pest or weed control at 62 g/ha ([1]; pre-emergence, Preemergence): 90%
pest or weed control at 125 g/ha ([1]; pre-emergence, Preemergence): 100%
pest or weed control at 16 g/ha ([2]; post-emergence, Postemergence): 10%
pest or weed control at 31 g/ha ([2]; post-emergence, Postemergence): 35%
pest or weed control at 62 g/ha ([2]; post-emergence, Postemergence): 45%
pest or weed control at 125 g/ha ([2]; post-emergence, Postemergence): 60%
pest or weed control at 16 g/ha ([2]; pre-emergence, Preemergence): 10%
pest or weed control at 31 g/ha ([2]; pre-emergence, Preemergence): 55%
pest or weed control at 62 g/ha ([2]; pre-emergence, Preemergence): 100%
pest or weed control at 125 g/ha ([2]; pre-emergence, Preemergence): 100%
pest or weed control at 16 g/ha ([3]; post-emergence, Postemergence): 5%
pest or weed control at 31 g/ha ([3]; post-emergence, Postemergence): 10%
pest or weed control at 62 g/ha ([3]; post-emergence, Postemergence): 10%
pest or weed control at 125 g/ha ([3]; post-emergence, Postemergence): 15%
pest or weed control at 16 g/ha ([3]; pre-emergence, Preemergence): 25%
pest or weed control at 31 g/ha ([3]; pre-emergence, Preemergence): 25%
pest or weed control at 62 g/ha ([3]; pre-emergence, Preemergence): 60%
pest or weed control at 125 g/ha ([3]; pre-emergence, Preemergence): 75%
pest or weed control at 16 g/ha ([4]; post-emergence, Postemergence): 50%
pest or weed control at 31 g/ha ([4]; post-emergence, Postemergence): 60%
pest or weed control at 62 g/ha ([4]; post-emergence, Postemergence): 80%
pest or weed control at 125 g/ha ([4]; post-emergence, Postemergence): 90%
pest or weed control at 16 g/ha ([4]; pre-emergence, Preemergence): 60%
pest or weed control at 31 g/ha ([4]; pre-emergence, Preemergence): 90%
pest or weed control at 62 g/ha ([4]; pre-emergence, Preemergence): 100%
pest or weed control at 125 g/ha ([4]; pre-emergence, Preemergence): 100%
pest or weed control at 16 g/ha ([5]; post-emergence, Postemergence): 5%
pest or weed control at 31 g/ha ([5]; post-emergence, Postemergence): 10%
pest or weed control at 62 g/ha ([5]; post-emergence, Postemergence): 25%
pest or weed control at 125 g/ha ([5]; post-emergence, Postemergence): 35%
pest or weed control at 16 g/ha ([5]; pre-emergence, Preemergence): 10%
pest or weed control at 31 g/ha ([5]; pre-emergence, Preemergence): 35%
pest or weed control at 62 g/ha ([5]; pre-emergence, Preemergence): 45%
pest or weed control at 125 g/ha ([5]; pre-emergence, Preemergence): 80%
pest or weed control at 16 g/ha ([6]; post-emergence, Postemergence): 75%
pest or weed control at 31 g/ha ([6]; post-emergence, Postemergence): 80%
pest or weed control at 62 g/ha ([6]; post-emergence, Postemergence): 100%
pest or weed control at 125 g/ha ([6]; post-emergence, Postemergence): 100%
pest or weed control at 16 g/ha ([6]; pre-emergence, Preemergence): 80%
pest or weed control at 31 g/ha ([6]; pre-emergence, Preemergence): 90%
pest or weed control at 62 g/ha ([6]; pre-emergence, Preemergence): 95%
pest or weed control at 125 g/ha ([6]; pre-emergence, Preemergence): 95%
pest or weed control at 16 g/ha ([7]; post-emergence, 16 g ai/ha, Postemergence): 25%
pest or weed control at 31 g/ha ([7]; post-emergence, Postemergence): 35%
pest or weed control at 62 g/ha ([7]; post-emergence, Postemergence): 45%
pest or weed control at 125 g/ha ([7]; post-emergence, Postemergence): 55%
pest or weed control at 31 g/ha ([7]; pre-emergence, Preemergence): 25%
pest or weed control at 62 g/ha ([7]; pre-emergence, Preemergence): 100%
pest or weed control at 125 g/ha ([7]; pre-emergence, Preemergence): 100%
pest or weed control at 16 g/ha ([8]; post-emergence, Postemergence): 85%
pest or weed control at 31 g/ha ([8]; post-emergence, Postemergence): 90%
pest or weed control at 62 g/ha ([8]; post-emergence, Postemergence): 90%
pest or weed control at 125 g/ha ([8]; post-emergence, Postemergence): 90%
pest or weed control at 16 g/ha ([8]; pre-emergence, Preemergence): 100%
pest or weed control at 31 g/ha ([8]; pre-emergence, Preemergence): 100%
pest or weed control at 62 g/ha ([8]; pre-emergence, Preemergence): 100%
pest or weed control at 125 g/ha ([8]; pre-emergence, Preemergence): 100%
pest or weed control at 16 g/ha ([9]; post-emergence, Postemergence): 75%
pest or weed control at 31 g/ha ([9]; post-emergence, Postemergence): 95%
pest or weed control at 62 g/ha ([9]; post-emergence, Postemergence): 100%
pest or weed control at 125 g/ha ([9]; post-emergence, Postemergence): 100%
pest or weed control at 16 g/ha ([9]; pre-emergence, Preemergence): 85%
pest or weed control at 31 g/ha ([9]; pre-emergence, Preemergence): 95%
pest or weed control at 62 g/ha ([9]; pre-emergence, Preemergence): 85%
pest or weed control at 125 g/ha ([9]; pre-emergence, Preemergence): 100%
pest or weed control at 16 g/ha ([10]; post-emergence, Postemergence): 10%
pest or weed control at 31 g/ha ([10]; post-emergence, 31 g ai/ha, Postemergence): 20%
pest or weed control at 62 g/ha ([10]; post-emergence, Postemergence): 35%
pest or weed control at 125 g/ha ([10]; post-emergence, Postemergence): 45%
pest or weed control at 16 g/ha ([10]; pre-emergence, Preemergence): 15%
pest or weed control at 62 g/ha ([10]; pre-emergence, Preemergence): 100%
pest or weed control at 125 g/ha ([10]; pre-emergence, Preemergence): 100%
plant injury at 16 g/ha ([11]; 16 g ai/ha): 5%
plant injury at 31 g/ha ([11]; 31 g ai/ha): 10%
plant injury at 62 g/ha ([11]; 62 g ai/ha): 20%
plant injury at 125 g/ha ([11]; 125 g ai/ha): 25%
